# Patent US20220306695A1, “COMPSTATIN ANALOGUES AND THEIR MEDICAL USES” (priority 2019, published 2022)
# Starred links: 1 amine or outer side, 2 acyl side, 3 side chain; linkers in the order of their positions; H or OH if unused. Positions of bridges follow the written chain, without caps; N, C: chain ends. Non-standard residues stand in square brackets, D forms with d. Residues, ends and D or L forms follow the SMILES beside them. Groups on a side chain read outwards from the residue. *: point of attachment. Trp(1-Me) = Cn1cc(C[C@H](N)C(=O)O)c2ccccc21; C16 diacid = O=C(O)CCCCCCCCCCCCCCC(=O)*; γGlu = O=C(O)[C@H](CCC(=O)[*:2])N[*:1]; AEEA = NCCOCCOCC(=O)O; Sar = CNCC(=O)O
# Columns and labels:
# [1] = test system: classical complement pathway; test: In vitro haemolysis assay (inhibition of classical complement pathway); type: cell-based, human; details: Table 3; human serum, sensitized sheep red blood cells; read-out: IC50[nM], in vitro analysis of inhibition of hemolysis
# Outline: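 Serially diluted compound (9 points) was preincubated 15 min at room temperature with diluted human serum, titrated per batch to give 70-90% maximal haemolysis, in Tris/casein buffer pH 7.4 with Mg2+/Ca2+. Antibody-sensitized sheep erythrocytes were then added for 30 min at 37° C, and the reaction was stopped with EDTA. Haemolysis was read at A405, with IC50 from 4PL fit.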
# [2] = Solubility test at 10 mg/mL (visual inspection and light scattering); type: physicochemical; details: for Solubility, Condition 1 Acetate pH 4: 10 mg/mL compound in 100 mM acetate pH 4; for Solubility, Condition 2 Acetate pH 5: 10 mg/mL compound in 100 mM acetate pH 5; for Solubility, Condition 3 Phosphate pH 6: 10 mg/mL compound in 100 mM phosphate pH 6; for Solubility, Condition 4 Phosphate pH 7: 10 mg/mL compound in 100 mM phosphate pH 7; for Solubility, Condition 5 Phosphate pH 7.5: 10 mg/mL compound in 100 mM phosphate pH 7.5
# in vivo = test: in vivo; design: species or system Cynomolgus monkeys (Macaca fascicularis); details: male, cynomolgus monkey, sc, 1840 nmol/kg, t½
# Experimental: Healthy male Cynomolgus monkeys (Macaca fascicularis) received single subcutaneous administrations of each test substance. Compounds were formulated in 20 mM phosphate adjusted with NaOH to pH 7.5 and mannitol for isotonicity and dosed at 1840 nmol/kg. Blood was collected from a femoral vein from each animal at the following times: Pre-dose, 1, 2, 4, 8, 24, 48, 72, 96 and 120 h (10 sampling times). Blood was collected into serum separation tubes and allowed to clot at room temperature. The tubes were centrifuged and resulting serum was aliquoted and snap-frozen over dry-ice and stored at nominally −80° C. until analysis. All NHP studies were performed in accordance with animal welfare laws and regulations, including approval of the study by a local ethical review process.
# In order to assess pharmacokinetic half-life (t %/), serum samples isolated from non-human primates at specific time points after dosing were analysed for total drug compound after sample preparation by solid phase extraction (SPE) and liquid chromatography mass spectrometry (LC-MS/MS) using analogue internal standard. Single measurement of serum concentrations were used for calculation of the pharmacokinetic parameters using the non-compartmental approach in Phoenix WinNonlin 6.3. Plasma terminal elimination half-life (ty) was determined as In(2)/λz where λz is the magnitude of the slope of the log linear regression of the log concentration versus time profile during the terminal phase.
half-life (in vivo),SMILES,IC50 [1],"Solubility, Condition 1 Acetate pH 4 [2]","Solubility, Condition 2 Acetate pH 5 [2]","Solubility, Condition 3 Phosphate pH 6 [2]","Solubility, Condition 4 Phosphate pH 7 [2]","Solubility, Condition 5 Phosphate pH 7.5 [2]"
4.01 days,CC[C@H](C)[C@@H]1NC(=O)[C@@H](NC(=O)[C@H](Cc2ccc(O)cc2)NC(=O)[C@H](C)NC(=O)[C@H](CO)NC(=O)CNC(=O)[C@H](CCC(=O)O)NC(C)=O)CSSC[C@@H](C(=O)N(C)CC(=O)N[C@@H](CCC(=O)O)C(=O)NCC(=O)N[C@@H](CCCCNC(=O)COCCOCCNC(=O)COCCOCCNC(=O)CC[C@H](NC(=O)CCCCCCCCCCCCCCC(=O)O)C(=O)O)C(N)=O)NC(=O)[C@H](CCCNC(=N)N)NC(=O)[C@H](Cc2c[nH]cn2)NC(=O)[C@H](CCC(=O)O)NC(=O)CNC(=O)[C@H](Cc2c[nH]c3ccccc23)NC(=O)[C@H](CC(=O)O)NC(=O)[C@H](CCC(N)=O)NC(=O)[C@H](Cc2cn(C)c3ccccc23)NC1=O [Compound 104] (Ac-EGSAYCI[Trp(1-Me)]QDWGEHRC[Sar]EGK([AEEA-AEEA-γGlu-C16 diacid])-NH2; disulfide 6-16),< 100 nM,"− (denotes lack of solubility at the given condition, as UV absorbance at 340 nm exceeds 0.1 AU and/or it is visibly turbid or contains particles.)","+ (denotes solubility at the given condition, as determined by UV absorbance being less than 0.1 AU at 340 nm and the sample being clear when manually inspected.)","+ (denotes solubility at the given condition, as determined by UV absorbance being less than 0.1 AU at 340 nm and the sample being clear when manually inspected.)","+ (denotes solubility at the given condition, as determined by UV absorbance being less than 0.1 AU at 340 nm and the sample being clear when manually inspected.)","+ (denotes solubility at the given condition, as determined by UV absorbance being less than 0.1 AU at 340 nm and the sample being clear when manually inspected.)"
0.838 days,CC[C@H](C)[C@@H]1NC(=O)[C@@H](NC(=O)[C@H](Cc2ccc(O)cc2)NC(=O)[C@H](CCC(=O)O)NC(=O)[C@H](CO)NC(=O)CNC(=O)[C@H](CCC(=O)O)NC(=O)CCCCCCCCCCCCCCC(=O)O)CSSC[C@@H](C(=O)N(C)CC(=O)N[C@@H](CCC(=O)O)C(N)=O)NC(=O)[C@H](CCCNC(=N)N)NC(=O)[C@H](Cc2c[nH]cn2)NC(=O)[C@H](CCC(=O)O)NC(=O)CNC(=O)[C@H](Cc2c[nH]c3ccccc23)NC(=O)[C@H](CC(=O)O)NC(=O)[C@H](CCC(N)=O)NC(=O)[C@H](Cc2cn(C)c3ccccc23)NC1=O [Compound 107] ({C16 diacid}-EGSEYCI[Trp(1-Me)]QDWGEHRC[Sar]E-NH2; disulfide 6-16),< 100 nM,"− (denotes lack of solubility at the given condition, as UV absorbance at 340 nm exceeds 0.1 AU and/or it is visibly turbid or contains particles.)","− (denotes lack of solubility at the given condition, as UV absorbance at 340 nm exceeds 0.1 AU and/or it is visibly turbid or contains particles.)","+ (denotes solubility at the given condition, as determined by UV absorbance being less than 0.1 AU at 340 nm and the sample being clear when manually inspected.)","+ (denotes solubility at the given condition, as determined by UV absorbance being less than 0.1 AU at 340 nm and the sample being clear when manually inspected.)","+ (denotes solubility at the given condition, as determined by UV absorbance being less than 0.1 AU at 340 nm and the sample being clear when manually inspected.)"
